Source: patent publication US5684151A, “1-arylsulphonyl, arylcarbonyl and 1-arylphosphonyl-3-phenyl-1,4,5,6-tetrahydropyridazines” (priority 1995, dated 1997)
Like-named read-outs stand apart in the source and are kept apart here.

How the values were obtained:
[1] = target: T1, progestin receptor from rabbit uterus (Oryctolagus cuniculus, UniProt P06186); assay: Progestin receptor binding (3H-R5020 displacement); settings: rabbit uterine cytosol, 4° C., 18 h, read-out: IC50: Binding affinity for the progestin receptor from rabbit uterus
T1 construct: Cytosolic progestin receptor were obtained by mixing rabbit uterine tissue with a Tris buffer; from tissue; host or cells: rabbit uterus cytosol
T1 sequence (P06186 whole entry): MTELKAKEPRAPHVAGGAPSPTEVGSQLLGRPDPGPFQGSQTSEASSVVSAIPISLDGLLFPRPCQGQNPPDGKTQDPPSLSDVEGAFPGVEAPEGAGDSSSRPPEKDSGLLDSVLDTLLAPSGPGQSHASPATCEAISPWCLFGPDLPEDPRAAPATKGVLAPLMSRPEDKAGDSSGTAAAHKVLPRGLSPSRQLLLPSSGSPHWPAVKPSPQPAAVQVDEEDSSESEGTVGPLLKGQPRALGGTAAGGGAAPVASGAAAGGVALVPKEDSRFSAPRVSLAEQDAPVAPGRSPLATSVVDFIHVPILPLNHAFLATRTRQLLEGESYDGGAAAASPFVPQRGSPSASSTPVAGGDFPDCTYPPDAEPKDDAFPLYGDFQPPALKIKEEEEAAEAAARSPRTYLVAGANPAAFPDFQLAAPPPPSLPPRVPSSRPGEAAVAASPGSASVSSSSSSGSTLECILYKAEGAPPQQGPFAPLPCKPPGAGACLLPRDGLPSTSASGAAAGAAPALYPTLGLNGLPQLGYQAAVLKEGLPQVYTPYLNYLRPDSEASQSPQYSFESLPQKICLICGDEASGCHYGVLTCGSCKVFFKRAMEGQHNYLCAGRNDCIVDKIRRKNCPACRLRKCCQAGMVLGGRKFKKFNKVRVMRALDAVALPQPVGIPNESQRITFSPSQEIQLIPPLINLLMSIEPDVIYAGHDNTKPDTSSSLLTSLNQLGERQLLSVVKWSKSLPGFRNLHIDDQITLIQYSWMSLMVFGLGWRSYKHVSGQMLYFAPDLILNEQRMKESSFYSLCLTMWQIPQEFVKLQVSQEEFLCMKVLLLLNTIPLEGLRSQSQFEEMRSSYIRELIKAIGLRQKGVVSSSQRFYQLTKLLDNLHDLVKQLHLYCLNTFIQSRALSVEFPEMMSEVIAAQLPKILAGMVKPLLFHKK
Procedure: A progestin initiates a biological response by first binding to a progestin receptor. Affinity for progestin receptors was determined by measuring the ability of compounds to displace a progestin radioligand from those receptors in vitro. Cytosolic progestin receptor were obtained by mixing rabbit uterine tissue with a Tris buffer [0.1M Tris-Hcl, 1 mM Na2 EDTA, 1 mM dithiothreotol, 1 mM sodium molybdate, 1% glycerol, pH 7.4]. The tissue/buffer mixture was homogenized under ice-cold conditions. The homogenate was then centrifuged and the supernatant (cytosol preparation) was decanted and stored at -70° C. and thawed prior to use. The competitive binding assay was performed by mixing ^3 H-R5020, a progestin radioligand, with cytosol preparation and various concentrations of test compounds (prepared in DMSO with a final 5% DMSO concentration). This mixture was then incubated at 4° C. for about 18 hours. Non-specific binding was determined using an unlabelled ligand in excess. After the incubation period, the radioligand bound to receptor was separated from free radioligand using dextran-coated charcoal. The amount of bound radioligand was then determined by liquid scintillation counting. The data were expressed as the concentration of test compound that displaced 50% of the radioligand from the receptor (IC50)
Aspects of the application used in this procedure are described in the following: J. L. McGuire et al., Biochemistry 13, 319, 1974.

[2] = tested on: mouse (MC3T3-E1) and human (TE-85) osteoblast-line cells; type: cell-based
Text: Compounds of the present invention have utility to treat osteoporosis through enhancement of bone calcification rather than traditional approaches which generally involve inhibition of bone degeneration or resorption. The compounds of the present invention have been evaluated as stimulators of proliferation of osteoblast cell and chick calivaria bone organ culture which is predictive of enhancement of bone mass and bone formation in vivo.
The action of select compounds to stimulate osteoblast growth was measured in culture by estimating the rate of DNA synthesis by the rate of ^3 H-thymidine incorporation into DNA. Only cells undergoing mitosis synthesized new DNA and thus only these cells incorporated the radiolabelled DNA-specific thymidine. The stimulation of the proliferation and differentiation of bone-forming cells, osteoblasts, was a prerequisite for an increase in bone formation and bone mass. The ability of agents to increase osteoblast proliferation and differentiation can be predicted by their action on cultured osteoblast-line cells in vitro. In this test, mouse (MC3T3-E1) and human (TE-85) osteoblast-line cells (American Type Tissue Culture Collection, #CRL 1543, Rockville, Md. cloned by Sudo et al., Koriyama, Japan) were cultured in vitro and the effect of various agents were tested on osteoblast cell proliferation. Cells were harvested from large culture flasks where they were allowed to grow to near confluency using trypsin. The cells were plated into 96 well culture plates, 1600 cells in 100 μL per well in Dulbencos Modified Eagle's Medium (DMEM) with 25 mM HEPES buffer, L-glutamine (584 mg/L); D-glucose (4.5 g/L) supplemented with fetal bovine sera (10%); penicillin (100 units/mL) and streptomycin (100 mcg/mL); sodium pyruvate (10 μM final concentration). The cells were allowed to plate overnight in DMEM containing 10% fetal bovine sera at 37° C. in an atmosphere of 5% CO2/95% air. Following their placement into 96 well culture plates all the osteoblast-line cells, either the MC3T3-E1 or the TE-85 cell lines, were allowed an additional 24 hours preincubation period in media containing only 0.1% fetal bovine sera.
Twenty hours later, a 20 μL aliquot of media containing 0.4 μCi of ^3 H-thymidine was added to each culture well. The cells were then incubated an additional 4 hours. The incubation was terminated by aspirating the media and washing with HBSS (Hank's Balanced Salt Solution). The cells were then treated with 100 μL of 0.5% trypsin and 5.3 mM EDTA for 30 minutes at room temperature. The cells were then aspirated onto glass fiber filter and washed with water. The radioactivity on the filters was quantified by liquid scintillation spectroscopy. The rate of ^3 H-thymidine incorporation into DNA was then utilized as an index of cell proliferation. The results are shown in Table 13 expressed as % times control where the control is 100%. […]

## Cc1ccc(S(=O)(=O)N2CCCC(c3ccccc3)=N2)cc1 [Compound 2]
[1]
  IC50: 3 µM
[2]; 10^-6
  Osteoblast Cell Proliferation, 3H-thymidine incorporation vs control (100%): 105%
[2]; 10^-7
  Osteoblast Cell Proliferation, 3H-thymidine incorporation vs control (100%): 119%
[2]; 10^-8
  Osteoblast Cell Proliferation, 3H-thymidine incorporation vs control (100%): 99%
[2]; 10^-9
  Osteoblast Cell Proliferation, 3H-thymidine incorporation vs control (100%): 91%
[2]; 10^-10
  Osteoblast Cell Proliferation, 3H-thymidine incorporation vs control (100%): 77%

## COc1ccc(C2=NN(S(=O)(=O)c3ccc(C)cc3)CCC2)cc1 [Compound 3]
[1]
  IC50: 10 µM
[2]; 10^-6
  Osteoblast Cell Proliferation, 3H-thymidine incorporation vs control (100%): 92%
[2]; 10^-7
  Osteoblast Cell Proliferation, 3H-thymidine incorporation vs control (100%): 110%
[2]; 10^-8
  Osteoblast Cell Proliferation, 3H-thymidine incorporation vs control (100%): 115%
[2]; 10^-9
  Osteoblast Cell Proliferation, 3H-thymidine incorporation vs control (100%): 138%
[2]; 10^-10
  Osteoblast Cell Proliferation, 3H-thymidine incorporation vs control (100%): 118%

## O=[N+]([O-])c1ccc(S(=O)(=O)N2CCCC(c3ccc(Cl)cc3)=N2)cc1 [Compound 4]
[1]
  IC50: 0.201 µM
[2]; 10^-6
  Osteoblast Cell Proliferation, 3H-thymidine incorporation vs control (100%): 108%
[2]; 10^-7
  Osteoblast Cell Proliferation, 3H-thymidine incorporation vs control (100%): 111%
[2]; 10^-8
  Osteoblast Cell Proliferation, 3H-thymidine incorporation vs control (100%): 155%
[2]; 10^-9
  Osteoblast Cell Proliferation, 3H-thymidine incorporation vs control (100%): 153%
[2]; 10^-10
  Osteoblast Cell Proliferation, 3H-thymidine incorporation vs control (100%): 158%

## O=S(=O)(c1cc(Cl)ccc1Cl)N1CCCC(c2ccc(Cl)cc2)=N1 [Compound 5]
[1]
  IC50: 0.0053 µM
[2]; 10^-6
  Osteoblast Cell Proliferation, 3H-thymidine incorporation vs control (100%): 89%
[2]; 10^-7
  Osteoblast Cell Proliferation, 3H-thymidine incorporation vs control (100%): 106%
[2]; 10^-8
  Osteoblast Cell Proliferation, 3H-thymidine incorporation vs control (100%): 124%
[2]; 10^-9
  Osteoblast Cell Proliferation, 3H-thymidine incorporation vs control (100%): 108%
[2]; 10^-10
  Osteoblast Cell Proliferation, 3H-thymidine incorporation vs control (100%): 114%

## O=S(=O)(c1ccc(Cl)cc1)N1CCCC(c2ccc(Cl)cc2)=N1 [Compound 6]
[1]
  IC50: 0.015 µM
[2]; 10^-6
  Osteoblast Cell Proliferation, 3H-thymidine incorporation vs control (100%): 81%
[2]; 10^-7
  Osteoblast Cell Proliferation, 3H-thymidine incorporation vs control (100%): 97%
[2]; 10^-8
  Osteoblast Cell Proliferation, 3H-thymidine incorporation vs control (100%): 106%
[2]; 10^-9
  Osteoblast Cell Proliferation, 3H-thymidine incorporation vs control (100%): 114%
[2]; 10^-10
  Osteoblast Cell Proliferation, 3H-thymidine incorporation vs control (100%): 121%

## Cc1ccc(S(=O)(=O)N2CCCC(c3ccc(F)cc3)=N2)cc1 [Compound 9]
[1]
  IC50: 0.362 µM
[2]; 10^-6
  Osteoblast Cell Proliferation, 3H-thymidine incorporation vs control (100%): 65%
[2]; 10^-7
  Osteoblast Cell Proliferation, 3H-thymidine incorporation vs control (100%): 94%
[2]; 10^-8
  Osteoblast Cell Proliferation, 3H-thymidine incorporation vs control (100%): 128%
[2]; 10^-9
  Osteoblast Cell Proliferation, 3H-thymidine incorporation vs control (100%): 102%
[2]; 10^-10
  Osteoblast Cell Proliferation, 3H-thymidine incorporation vs control (100%): 119%

## O=[N+]([O-])c1ccc(S(=O)(=O)N2CCCC(c3ccc(F)cc3)=N2)cc1 [Compound 10]
[1]
  IC50: 1.05 µM
[2]; 10^-6
  Osteoblast Cell Proliferation, 3H-thymidine incorporation vs control (100%): 91%
[2]; 10^-7
  Osteoblast Cell Proliferation, 3H-thymidine incorporation vs control (100%): 90%
[2]; 10^-8
  Osteoblast Cell Proliferation, 3H-thymidine incorporation vs control (100%): 123%
[2]; 10^-9
  Osteoblast Cell Proliferation, 3H-thymidine incorporation vs control (100%): 115%
[2]; 10^-10
  Osteoblast Cell Proliferation, 3H-thymidine incorporation vs control (100%): 139%

## O=[N+]([O-])c1cccc(S(=O)(=O)N2CCCC(c3ccc(Cl)c(C(F)(F)F)c3)=N2)c1 [Compound 127]
[1]
  IC50: 0.00404 µM

## O=[N+]([O-])c1ccc(S(=O)(=O)N2CCCC(c3ccc(Cl)c(C(F)(F)F)c3)=N2)cc1 [Compound 128]
[1]
  IC50: 0.0142 µM

## O=S(=O)(c1ccc(C(F)(F)F)cc1)N1CCCC(c2ccc3ccccc3c2)=N1 [Compound 129]
[1]
  IC50: 0.00494 µM

## O=S(=O)(c1cccc(C(F)(F)F)c1)N1CCCC(c2ccc3ccccc3c2)=N1 [Compound 130]
[1]
  IC50: 0.00231 µM

## O=S(=O)(c1ccccc1)N1CCCC(c2ccc3ccccc3c2)=N1 [Compound 131]
[1]
  IC50: 0.0174 µM

## O=S(=O)(c1ccc2ccccc2c1)N1CCCC(c2ccc3ccccc3c2)=N1 [Compound 132]
[1]
  IC50: 0.0075 µM

## COC(=O)CCCOc1ccc(Br)cc1S(=O)(=O)N1CCCC(c2ccc(Cl)c(Cl)c2)=N1 [Compound 136, 3-(3,4-dichlorophenyl)-1-(2-(3-carbomethoxypropxy)-5-bromobenzenesulphonyl)-1,4,5,6-tetrahydropyridazine]
[1]
  IC50: 0.07 µM

## CN1C(=O)CSc2cc(C3=NN(S(=O)(=O)c4ccc(I)cc4)CCC3)ccc21 [Compound 138]
[1]
  IC50: 0.341 µM

## CC1CC(c2ccccc2)=NN(S(=O)(=O)c2cccc(C(F)(F)F)c2)C1 (stereo not shown) [Compound 141]
[1]
  IC50: 0.396 µM

## CC1CC(c2ccccc2)=NN(S(=O)(=O)c2ccc(Br)cc2)C1 (stereo not shown) [Compound 142]
[1]
  IC50: 1.62 µM

## Cc1ccc(S(=O)(=O)N2CC(C)CC(c3ccccc3)=N2)cc1 (stereo not shown) [Compound 143]
[1]
  IC50: 1.38 µM

## O=S(=O)(c1ccc(I)cc1)N1CCCC(c2ccc3c(c2)oc2ccccc23)=N1 [Compound 145, 3-(Dibenzofuran-3-yl)-1-(4-iodobenzenesulfonyl)-1,4,5,6-tetrahydropyradazine]
[1]
  IC50: 0.1 µM

## Cc1ccc(C(=O)N2CCCC(c3ccc(Cl)cc3)=N2)cc1 [Compound 146, 1-(4-Methylbenzoyl)-3-(4-chlorophenyl)-1,4,5,6-tetrahydropyridazine]
[1]
  IC50: 1 µM

## O=S(=O)(c1ccc(I)cc1)N1N=C(c2ccc(Cl)cc2)CC2CC=CC21 (stereo not shown) [Compound 160, 3-(4-Chlorophenyl)-1-(4-iodobenzenesulfonyl)-4,4a,5,7a-tetrahydro-1H-cyclopenta[c]pyridiazine]
[1]
  IC50: 0.032 µM

## O=S(=O)(c1ccc(I)cc1)N1CCC(Br)(Br)C(c2ccc(Cl)c(C(F)(F)F)c2)=N1 [Compound 162, 4,4-Dibromo-3-(4-chloro-3-trifluoromethylphenyl)-1-(4-iodobenzenesulfonyl)-1,4,5,6-tetrahydropyridazine]
[1]
  IC50: 0.003 µM

## Cc1ccc(/C=C/S(=O)(=O)N2CCCC(c3ccc4ccccc4c3)=N2)cc1 [Compound 175]
[1]
  IC50: 0.0062 µM

## O=S(=O)(/C=C/c1ccc2ccccc2c1)N1CCCC(c2ccc(Cl)c(C(F)(F)F)c2)=N1 [Compound 177]
[1]
  IC50: 0.528 µM

## CN(C)c1ccc(C2=NN(S(=O)(=O)c3ccc(I)cc3)CCC2)cc1 [Compound 209, 1-(4-Iodobenzenesulfonyl)-3-(4-dimethylaminophenyl)-1,4,5,6-tetrahydropyridazine]
[1]
  IC50: 0.117 µM

## CN(C)c1ccc(C2=NN(S(=O)(=O)c3ccc(Br)cc3)CCC2)cc1 [Compound 213]
[1]
  IC50: 0.326 µM

## O=[N+]([O-])c1ccc(C(=S)N2CCCC(c3ccc(Cl)c(Cl)c3)=N2)cc1 [Compound 242]
[1]
  IC50: 0.012 µM

## Fc1ccc(C(=S)N2CCCC(c3ccc(Cl)c(Cl)c3)=N2)cc1Br [Compound 246]
[1]
  IC50: 0.114 µM

## O=S(=O)(c1ccc(C(F)(F)C(F)(F)F)cc1)N1CCCC(c2ccc(Cl)c(Cl)c2)=N1 [Compound 272, 3-(3,4-Dichlorophenyl)-1-(4-pentafluoroethylbenzenesulfonyl)-1,4,5,6-tetrahydropyridazine]
[1]
  IC50: 0.329 µM

## COC(=O)c1ccc(S(=O)(=O)N2CCCC(c3ccc(Cl)c(Cl)c3)=N2)cc1 [Compound 273, 3-(3,4-Dichlorophenyl)-1-(4-carbomethoxybenzesulfonyl)-1,4,5,6-tetrahydropyridazine]
[1]
  IC50: 0.0034 µM

## Nc1ccc(S(=O)(=O)N2CCCC(c3ccc(Cl)c(Cl)c3)=N2)cc1 [Compound 274, 1-(4-Aminobenzenesulfonyl)-3-(3,4-dichlorophenyl)-1,4,5,6-tetrahydropyridazine]
[1]
  IC50: 0.204 µM

## O=S(=O)(/C=C/c1ccccc1)N1CCCC(c2ccc(Cl)c(C(F)(F)F)c2)=N1 [Compound 276]
[1]
  IC50: 0.0539 µM
